According to patent US20110130425A1, “Use of H3 Histaminergic Agonists for the Treatment of Addiction to Drugs of Abuse” (priority 2009, published 2011):

Key:
[1] = system: reinforcement produced by cocaine; experiment: Reinforcement phase: cocaine self-administration dose/response; assay type: in vivo, rat; details: L-histidine 500 mg/kg single dose one hour before reinforcement; even at 0.03 mg/kg cocaine; rats
[2] = system: nicotine seeking behavior; experiment: Extinction and reinstatement of nicotine seeking, mouse intravenous operant self-administration; assay type: in vivo, C57B16/J mice; details: L-histidine 1 g/kg or 2 g/kg; mice
Procedure: L-Histidine solution: L-Histidine (Sigma, H-8000) at a 155.15 g/mol concentration in 0.34 M phosphoric acid is prepared as follows. 1.5 g L-histidine are dissolved in 12 ml of 0.34 M phosphoric acid to obtain a 0.8 M solution of L-histidine at approximately pH 6. pH is verified and 0.1 g of NaCl added to a final concentration of 0.9%. Finally, the L-histidine solution is sterilized by filtration.
Animals: Male C57B16/J mice (Charles River, France) are housed individually in controlled laboratory conditions with the temperature maintained at 21±1° C., humidity at 55±10%, and light reversal cycle (light on at 20.00 h, light off at 08.00 h). Mice are tested during the dark phase of a light reversal cycle. Behavioural tests and animal care are conducted in accordance with the standard ethical guidelines (National Institutes of Health 1995; European Communities Directive 86/609 EEC) and the protocols are approved by the local ethical committee (CEEA-PRBB).
Apparatus: The self-administration experiments are conducted in mouse operant chambers (Model ENV-307A-CT, Medical Associates, Georgia, VT, USA). The experimental chambers are equipped with a house light, ventilator fan, drug infusion pump, liquid swivel with counterbalanced arm, and two manipulanda with cue lights that are located on either side of a food dipper. The manipulanda are holes (1.2 cm diameter). […]
The catheter is flushed daily with a saline solution containing heparin (30 UI/mL) in order to maintain its patency. The patency of intravenous catheters is evaluated periodically (approximately every 6 days) and whenever drug self-administration behavior appears to deviate dramatically from that observed previously. Patency is evaluated by the infusion of 0.1 ml of thiobarbital (5 mg/ml) through the catheter. […]
L-Histidine dosage: The first L-histidine dose is 1 g/kg. […] Dosage for other H3 histaminergic agonists or H3 histaminergic agonist precursors is determined considering the pharmacokinetic and toxicological characteristics of the compound. […]

[3] = system: alcohol seeking behavior; experiment: Relapse into seeking alcohol self-administration (reinstatement by alcohol or foot-shock stress); assay type: in vivo, Sprague-Dawley rat; details: L-histidine 1 g/kg orally, rats
Procedure: Fourteen male Sprague-Dawley rats obtained from Charles-River weighing 200 g at the beginning of the protocol are used. Rats are water-deprived for the few hours before the first overnight session. Rats are placed in an operant chamber (Panlab) with two levers. Pressing the “active” lever provides access to 0.1 ml of a 20% sucrose solution under a continuous reinforcement program. A light above the active lever signals availability of the solution in a drinking chamber for 20 seconds.
The following daily sessions take 60 minutes and water is provided ad libitum. […] Afterwards, the program is increased to Fixed Ratio 2 (FR2), i.e., two lever presses give access to one reinforcement. Self-administration is maintained next to FR3 and finally to FR5.
Before extinction sessions, saline is administered orally (5 ml/kg) to all rats. For extinction training, rats are placed in the same operant chambers but no alcohol access or cue light is contingent on lever press. Once rats decrease lever press to less than 10 presses per hour they are considered ready for reinstatement (relapse) procedures.
Before the reinstatement sessions, saline 5 ml/kg or L-histidine 1 g/kg (dissolved in saline and adjusted to pH 5) are administered orally to the rats. […]

Structure (SMILES): N[C@@H](Cc1c[nH]cn1)C(=O)O [L-histidine]
- tendency to seek cocaine (self-injections in 2 hours) [1]: diminished the tendency to seek cocaine
- cue-induced reinstatement of nicotine seeking [2]: decreases cue-induced reinstatement
- number of sessions required to achieve the extinction criteria (nicotine) [2]: shortens the number of sessions
- responding during the first extinction session (nicotine) [2]: decreases or delays responding
- reinstatement of alcohol seeking behavior caused by stress ([3]; foot-shock stress): decreases the reinstatement
- reinstatement of alcohol seeking behavior caused by exposure to ethanol [3]: decreases the reinstatement
